Strand notation (5' to 3'): a small letter for the sugar, then the base; units joined by * are phosphorothioate-linked, units joined directly phosphodiester-linked; [ ] holds rarer units or linkages, { } end groups; capitals alone tell only the bases. e = 2'-O-(2-methoxyethyl) (MOE); [5mC] = 5-methylcytosine; d = 2'-deoxy (DNA)
Tested on: human Factor 7 mRNA
Test: Antisense inhibition of human Factor 7 mRNA in HepB3 cells, 50 nM antisense oligonucleotide, lipofectin
Type: cell-based
Settings: Table 1, 50 nM, lipofectin, approximately 24 hours, relative to untreated control cells
Method in brief: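 Seeding density was 4,000 cells per well. Following roughly 24 hours of oligonucleotide treatment, RNA was extracted and Factor 7 message quantified using the RTS 2927 primer probe set. Levels were corrected for RIBOGREEN® total RNA and expressed against untreated controls.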

Substance | % Inhibition
407609 (antisense eA*eG*eA*eA*eG*d[5mC]*dA*dG*dA*dT*dA*dT*dA*dG*dG*eA*e[5mC]*eT*eG*eG) [compound 407609] | 35%
407955 (antisense eT*eG*eT*eG*eA*dA*dA*dT*dA*dT*d[5mC]*dA*dT*dT*dG*eA*e[5mC]*eA*eA*eG) [compound 407955] | 3%
407642 (antisense e[5mC]*eA*eG*e[5mC]*eA*dG*d[5mC]*d[5mC]*dT*dG*dA*dG*dG*d[5mC]*d[5mC]*eA*eG*e[5mC]*eA*eG) [compound 407642] | 78%
407661 (antisense eT*eT*eT*eA*e[5mC]*dA*dA*dG*dA*dG*d[5mC]*dA*dG*dG*dG*eT*eG*e[5mC]*e[5mC]*eT) [compound 407661] | 47%
407913 (antisense eG*eA*eT*eG*e[5mC]*d[5mC]*d[5mC]*dG*dT*d[5mC]*dA*dG*dG*dT*dA*e[5mC]*e[5mC]*eA*e[5mC]*eG) [compound 407913] | 74%
407907 (antisense eA*eA*eT*eG*eA*dG*dA*dA*dG*d[5mC]*dG*d[5mC]*dA*d[5mC]*dG*eA*eA*eG*eG*e[5mC]) [compound 407907] | 35%
407622 (antisense eT*e[5mC]*eA*e[5mC]*e[5mC]*dA*dA*d[5mC]*dA*dA*d[5mC]*dA*dG*dG*dA*e[5mC]*e[5mC]*eT*eG*e[5mC]) [compound 407622] | 55%
407959 (antisense eG*e[5mC]*eA*eG*eG*dG*dA*dT*dG*dG*d[5mC]*dA*dT*d[5mC]*dG*eA*eG*eT*e[5mC]*e[5mC]) [compound 407959] | 0%
407623 (antisense eT*e[5mC]*e[5mC]*eA*eT*dT*d[5mC]*dA*d[5mC]*d[5mC]*dA*dA*d[5mC]*dA*dA*e[5mC]*eA*eG*eG*eA) [compound 407623] | 69%
407909 (antisense e[5mC]*e[5mC]*eA*eT*e[5mC]*d[5mC]*dG*dA*dG*dT*dA*dG*d[5mC]*d[5mC]*dG*eG*e[5mC]*eA*e[5mC]*eA) [compound 407909] | 77%
407631 (antisense eG*eG*eG*e[5mC]*eA*d[5mC]*d[5mC]*dA*d[5mC]*dA*dT*dG*dG*dT*d[5mC]*eA*eG*eT*eG*eA) [compound 407631] | 66%

Same assay, conditions: Table 6, 50 nM, lipofectin, approximately 24 hours

Substance | % Inhibition
422188 (antisense eG*e[5mC]*eG*dG*dA*dA*dG*dA*dA*dG*dG*dG*dA*d[5mC]*dG*dG*dA*eA*eG*eG) [compound 422188] | 37%
422276 (antisense eG*eG*dT*dT*dA*d[5mC]*dT*dG*dA*dG*d[5mC]*dG*d[5mC]*dG*dG*eA*eA*eG*eA*eA) [compound 422276] | 66%
422186 (antisense eG*eG*eA*dA*dG*dA*dA*dG*dG*dG*dA*d[5mC]*dG*dG*dA*dA*dG*eG*eT*eG) [compound 422186] | 14%
422274 (antisense eT*eT*dA*d[5mC]*dT*dG*dA*dG*d[5mC]*dG*d[5mC]*dG*dG*dA*dA*eG*eA*eA*eG*eG) [compound 422274] | 24%

Same assay, conditions: gapmers targeted to nucleobases 4868 to 4899 of SEQ ID NO: 1, Table 8

Substance | % Inhibition of human Factor 7 mRNA levels
422300 (antisense eG*eA*dG*d[5mC]*d[5mC]*d[5mC]*dG*dA*dG*dT*dT*d[5mC]*dT*dG*d[5mC]*eA*eG*eG*eA*eG) [compound 422300] | 65%
422139 (antisense eT*eT*e[5mC]*eT*eG*d[5mC]*dA*dG*dG*dA*dG*d[5mC]*dG*dG*d[5mC]*e[5mC]*eT*eA*eA*eA) [compound 422139] | 66%

Same assay, conditions: lipofectin, 50 nM antisense oligonucleotide, approximately 24 hours, Factor 7 mRNA by real-time RT-PCR (RTS 2927), relative to untreated control

Substance | % Inhibition
416466 (antisense eT*eG*eT*eG*eG*dG*d[5mC]*d[5mC]*dT*d[5mC]*d[5mC]*dA*d[5mC]*dT*dG*eT*e[5mC]*e[5mC]*e[5mC]*e[5mC]) [compound 416466] | 57%
416523 (antisense eT*e[5mC]*eT*e[5mC]*eG*dA*dG*dG*dG*d[5mC]*dT*dG*dA*dG*dA*eA*eT*eT*eG*e[5mC]) [compound 416523] | 18%
416483 (antisense eT*eG*eT*eG*eA*dG*dG*dG*dT*dT*d[5mC]*dA*dT*dT*dT*e[5mC]*eA*eG*eT*eG) [compound 416483] | 22%
416485 (antisense eG*eA*eG*e[5mC]*eT*dA*d[5mC]*dA*dG*d[5mC]*d[5mC]*dT*d[5mC]*dA*dA*eA*e[5mC]*eA*eT*e[5mC]) [compound 416485] | 7%
416479 (antisense eG*eA*e[5mC]*eA*eG*d[5mC]*dA*d[5mC]*dA*d[5mC]*dA*dT*dG*dG*dA*eG*eT*e[5mC]*eA*eG) [compound 416479] | 56%
416454 (antisense e[5mC]*eG*eT*eG*e[5mC]*dT*d[5mC]*dG*d[5mC]*d[5mC]*d[5mC]*dA*dG*d[5mC]*dA*e[5mC]*e[5mC]*eG*e[5mC]*eG) [compound 416454] | 56%
416503 (antisense eT*eA*eG*e[5mC]*e[5mC]*dA*d[5mC]*d[5mC]*d[5mC]*d[5mC]*dG*d[5mC]*dG*dG*dG*e[5mC]*eT*eG*eG*e[5mC]) [compound 416503] | 0%
416516 (antisense eG*eT*eG*eA*eG*dA*dA*dT*dA*d[5mC]*dA*dA*d[5mC]*dA*dG*eA*eT*eG*eA*eG) [compound 416516] | 24%
416451 (antisense eG*e[5mC]*e[5mC]*eA*eT*dG*dG*dA*d[5mC]*dA*d[5mC]*dT*d[5mC]*d[5mC]*d[5mC]*e[5mC]*eT*eT*eT*eG) [compound 416451] | 75%
416433 (antisense eA*eG*eA*eA*eA*dT*d[5mC]*d[5mC]*dA*dG*dA*dA*d[5mC]*dA*dG*e[5mC]*eT*eT*e[5mC]*eG) [compound 416433] | 0%
416510 (antisense eG*eA*e[5mC]*eG*eA*dG*dG*d[5mC]*d[5mC]*dT*d[5mC]*dA*dG*dG*dT*eG*eG*eA*e[5mC]*eG) [compound 416510] | 30%
416442 (antisense eA*eG*e[5mC]*eA*eG*dA*dT*dA*dT*dA*dG*dG*dA*d[5mC]*dT*eG*eG*eA*eG*e[5mC]) [compound 416442] | 57%
416423 (antisense eG*eT*eG*eT*eT*dT*d[5mC]*dT*d[5mC]*d[5mC]*dT*d[5mC]*d[5mC]*dT*dG*eA*eG*eG*e[5mC]*e[5mC]) [compound 416423] | 51%
416525 (antisense eT*eA*eT*eG*eA*dG*dT*d[5mC]*d[5mC]*dT*dT*d[5mC]*dT*dA*dG*eT*eG*eA*eA*eT) [compound 416525] | 5%
416535 (antisense eG*e[5mC]*eA*eG*eG*dA*dT*dG*d[5mC]*dA*d[5mC]*dA*d[5mC]*d[5mC]*dA*eG*eG*eG*e[5mC]*eT) [compound 416535] | 47%
416504 (antisense eT*e[5mC]*eA*eG*eA*dA*dA*dA*dG*d[5mC]*dT*d[5mC]*dT*d[5mC]*dA*eA*eG*eA*eA*e[5mC]) [compound 416504] | 0%
416559 (antisense eG*e[5mC]*e[5mC]*eA*eT*dT*dT*d[5mC]*dT*dA*dG*dG*dT*d[5mC]*dT*eG*e[5mC]*eA*eG*eG) [compound 416559] | 25%
416506 (antisense e[5mC]*eT*eT*eT*eA*dA*dA*dA*dT*d[5mC]*dA*dG*dT*dT*dT*e[5mC]*eA*e[5mC]*eA*e[5mC]) [compound 416506] | 18%

Same assay, conditions: oligonucleotides targeted to nucleobases 11830 to 11869 of SEQ ID NO: 1 (Table 9)

Substance | % Inhibition (human Factor 7 mRNA levels)
422174 (antisense eG*e[5mC]*eT*dG*dG*d[5mC]*dT*dG*dA*dG*dG*dA*dG*dA*d[5mC]*dA*dA*eT*eG*eG) [compound 422174] | 55%
422165 (antisense eG*eG*eA*dG*dA*d[5mC]*dA*dA*dT*dG*dG*dT*d[5mC]*dA*dG*dG*dG*e[5mC]*eT*eG) [compound 422165] | 57%
422248 (antisense eG*eG*d[5mC]*dT*dG*dA*dG*dG*dA*dG*dA*d[5mC]*dA*dA*dT*eG*eG*eT*e[5mC]*eA) [compound 422248] | 60%
422161 (antisense eA*e[5mC]*eA*dA*dT*dG*dG*dT*d[5mC]*dA*dG*dG*dG*d[5mC]*dT*dG*dG*eT*eT*eT) [compound 422161] | 53%
422099 (antisense eA*eG*eG*eA*eG*dA*d[5mC]*dA*dA*dT*dG*dG*dT*d[5mC]*dA*eG*eG*eG*e[5mC]*eT) [compound 422099] | 48%
422106 (antisense e[5mC]*eT*eG*eG*e[5mC]*dT*dG*dA*dG*dG*dA*dG*dA*d[5mC]*dA*eA*eT*eG*eG*eT) [compound 422106] | 32%
422093 (antisense eA*eA*eT*eG*eG*dT*d[5mC]*dA*dG*dG*dG*d[5mC]*dT*dG*dG*eT*eT*eT*eT*eG) [compound 422093] | 42%

Same assay, conditions: oligonucleotides targeted to nucleobases 13760 to 13789 of SEQ ID NO: 1 (Table 10)

Substance | % Inhibition (human Factor 7 mRNA levels)
422180 (antisense e[5mC]*e[5mC]*eA*d[5mC]*d[5mC]*d[5mC]*dG*d[5mC]*d[5mC]*dG*dG*d[5mC]*dT*d[5mC]*dT*dG*d[5mC]*eT*e[5mC]*eA) [compound 422180] | 54%

Same assay, conditions: oligonucleotides targeted to nucleobases 14707 to 14732 of SEQ ID NO: 1 (Table 11)

Substance | % Inhibition (human Factor 7 mRNA levels)
407642 (antisense e[5mC]*eA*eG*e[5mC]*eA*dG*d[5mC]*d[5mC]*dT*dG*dA*dG*dG*d[5mC]*d[5mC]*eA*eG*e[5mC]*eA*eG) [compound 407642] | 63%

Same assay, conditions: oligonucleotides targeted to nucleobases 15098 to 15122 of SEQ ID NO: 1 (Table 12)

Substance | % Inhibition (human Factor 7 mRNA levels)
416479 (antisense eG*eA*e[5mC]*eA*eG*d[5mC]*dA*d[5mC]*dA*d[5mC]*dA*dT*dG*dG*dA*eG*eT*e[5mC]*eA*eG) [compound 416479] | 47%
422287 (antisense e[5mC]*eA*dG*d[5mC]*dA*d[5mC]*dA*d[5mC]*dA*dT*dG*dG*dA*dG*dT*e[5mC]*eA*eG*e[5mC]*eA) [compound 422287] | 41%
422288 (antisense eA*e[5mC]*dA*dG*d[5mC]*dA*d[5mC]*dA*d[5mC]*dA*dT*dG*dG*dA*dG*eT*e[5mC]*eA*eG*e[5mC]) [compound 422288] | 44%

— patent US9029337B2, “Modulation of factor 7 expression” (Isis Pharmaceuticals, Inc., priority 2007, dated 2015)
